Experimental data from PMC8097421 (Antimicrobial Agents and Chemotherapy, 2021).
Marks after values point to notes of the source that are not given here.

What was measured:
[1] = human, in vivo
[2] = in vivo; conditions: male, cynomolgus, cynomolgus monkey, po, 30 mg/kg
[3] = clinical; conditions: human, in vivo
[4] = Clinical observation of nonhuman primates in the PK study; format: in vivo, cynomolgus monkey; conditions: NHP, oral AT-527 60 mg/kg loading then 30 mg/kg every 12 h
[5] = Estimated oral bioavailability; conditions: in vivo, species and source not stated
[6] = design: method as in doi:10.1016/S0168-8278(20)31210-1; conditions: HCV-infected subjects, daily oral 550 mg with daclatasvir for up to 12 weeks; cited from earlier work
[7] = Steady-state plasma pharmacokinetics in nonhuman primates after oral AT-527; conditions: NHP plasma, oral AT-527 60 mg/kg loading then 30 mg/kg every 12 h
[8] = test system: MRC-5 (human lung fibroblast) cells; conditions: 8 h, 10 µM
[9] = test system: Huh-7 cells; conditions: human, 8 h, 10 µM
[10] = test system: human bronchial epithelial (HBE) cells; conditions: 10 µM
[11] = male, cynomolgus monkey, in vivo
[12] = test system: NiRAN domain of nsp12; design: method as in our unpublished data; conditions: ref our unpublished data; cited from earlier work
[13] = in vivo; conditions: male, cynomolgus monkey; for half-life: po, 30 mg/kg
[14] = in vitro; conditions: human, intracellular half-life (t1/2) of AT-9010
[15] = in vitro; conditions: human, intracellular half-life (t1/2) of AT-9010; remark: listed apart in the source
[16] = test system: primary human hepatocytes; conditions: cited from earlier work
[17] = test system: primary NHP hepatocytes; conditions: cited from earlier work
[18] = test system: SARS-CoV-2 (USA-WA1/2020); assay: microbe, parasite or virus in culture; format: cell-based, SARS-CoV-2 (Betacoronavirus); conditions: SARS-CoV-2, HAE cells
[19] = in vitro; conditions: human
[20] = test system: HCoV-229E; assay: CPE assay, HCoV-229E in BHK-21 cells; format: cell-based, HCoV-229E (Alphacoronavirus); conditions: Human coronavirus 229E, 72 h, 3-day incubation, MOI 0.01
Experimental: (§1) To assess whether AT-511, a 2′-fluoro-2′-methyl guanosine nucleotide prodrug (Fig. 1), had antiviral activity against a seasonal human alpha coronavirus, HCoV-229E, BHK-21 (baby hamster kidney) cells were acutely infected with the virus and exposed to serial dilutions of the drug. […] Half-maximal cytotoxicity (CC50) measured by neutral red staining of compound-treated cells in the absence of virus indicated little to no toxicity was detected from either drug up to 100 μM.
(§2) AT-511 and sofosbuvir were dissolved in DMSO at 100 mM and then diluted in growth medium to final concentrations of 100, 20, 4, and 0.8 μM (two […] replicate plates each). After BHK-21 cells were grown to confluence in 96-well plates, growth medium was replaced with fresh maintenance medium (growth medium with 1% inactivated FBS in place of 10% FBS) containing serially diluted test compound and HCoV-229E at a multiplicity of infection (MOI) of 0.01. Uninfected cells in the presence of serially diluted compound were used to assess the cytotoxicity of compounds. After a 3-day incubation at 37°C in a humidified 5% CO2 atmosphere, cell viability was determined by the 3-(4,5-dimethyl-2-thiazolyl)-2,5-diphenyl-2H-tetrazolium bromide (MTT) method ([22]). […]

[21] = Cytotoxicity in uninfected BHK-21 cells; format: cell-based; conditions: hamster, 3-day incubation, read-out: CPE assay CC50
Experimental: as §1, §2

Question: What does the source list for `C[C@@]1(F)[C@H](O)[C@@H](CO)O[C@H]1n1cnc2c(=O)[nH]c(N)nc21` [AT-273]?
Answer: absorption constant (Ka), population estimate [1]: 0.45 (±0.00253) h^−1; volume of central compartment (V1), population estimate [1]: 2,070 (±146) liters; volume of peripheral compartment (V2), population estimate [1]: 1,270 (±164) liters; AUC(0-t) [2]: 1.56 ± 0.18 µM·h; half-life [2]: 16 h; clearance [3]: 3130 mL/min

Question: For `CNc1nc(N)nc2c1ncn2C1OC(COP(=O)(NC(C)C(=O)OC(C)C)Oc2ccccc2)C(O)C1(C)F` (stereo not shown) [AT-527], which “unusual or adverse clinical signs” value [4] is on record?
Answer: Its value is “no such signs noted”.

Question: And the bioavailability [5]?
Answer: The bioavailability was no less than 50%.

Question: And the safety and tolerability [6]?
Answer: Its safety and tolerability is “safe and well tolerated”.

Question: Which Tmax [2] does the source give for `CNc1nc(N)nc2c1ncn2[C@@H]1O[C@H](CO[P@](=O)(O)N[C@@H](C)C(=O)O)[C@@H](O)[C@@]1(C)F` [AT-551] here?
Answer: The Tmax was 1 to 4 h.

Question: What about the “AUC0–12” value [7] of the same compound?
Answer: The value was 4.35 ± 1.77 µM·h.

Question: For `C[C@@]1(F)[C@H](O)[C@@H](COP(=O)(O)OP(=O)(O)OP(=O)(O)O)O[C@H]1n1cnc2c(=O)[nH]c(N)nc21` [AT-9010], which AT-9010 formed [8] is on record?
Answer: Its AT-9010 formed is 26.5 ± 0.5 pmol/10^6 cells.

Question: What about the AT-9010 formed [9] of the same compound?
Answer: The AT-9010 formed was 182 ± 6 pmol/10^6 cells.

Question: What about the “in vitro t1/2 of the TP, fold longer than in hepatocytes” value [10] of the same compound?
Answer: The value was 4.

Question: And the “AT-9010 lung-to-liver concentration ratio” value ([11]; 12 h)?
Answer: The value was 1.6.

Question: And the “AT-9010 in liver samples at 48-h postdose” value ([11]; 48 h)?
Answer: The value was “no peak corresponding to AT-9010 was detected”.

Question: What about the “inhibition of NiRAN” value [12] of the same compound?
Answer: The value was “potent inhibitor”.

Question: What about the concentration at 12 h ([13]; AT-9010 concentration in kidney) of the same compound?
Answer: Its concentration at 12 h is 130 ± 40 nM.

Question: What about the concentration at 12 h ([13]; AT-9010 concentration in liver tissue) of the same compound?
Answer: The concentration at 12 h was 90 ± 30 nM.

Question: And the concentration at 12 h ([13]; AT-9010 concentration in lung tissue)?
Answer: Its concentration at 12 h is 140 ± 110 nM.

Question: And the half-life ([13]; estimated half-life of AT-9010 in kidney tissue)?
Answer: Its half-life is 8.5 h.

Question: What about the half-life ([13]; estimated half-life of AT-9010 in lung tissue) of the same compound?
Answer: Its half-life is 9.4 h.

Question: What about the half-life at 10 µM [14] of the same compound?
Answer: The half-life at 10 µM was 38 to 39 h.

Question: And the half-life at 10 µM [15]?
Answer: The half-life at 10 µM was 38 to 39 h.

Question: What about the “in vitro t1/2 of AT-9010” value [16] of the same compound?
Answer: The value was 10 h.

Question: What about the “in vitro t1/2 of AT-9010” value [17] of the same compound?
Answer: Its value is 10 h.

Question: For `CC(C)C(=O)OC[C@H]1O[C@@H](n2ccc(NO)nc2=O)[C@H](O)[C@@H]1O` [Molnupiravir], which “Selectivity index (CC50/EC90)” value ([18]; CC50/EC90) is on record?
Answer: Its value is >4.9^c.

Question: And the EC90 ([18]; Severe acute respiratory syndrome coronavirus 2, 120 h, 5-day incubation, read-out: VYR assay EC90)?
Answer: The EC90 was 2.8 ± 1 µM.

Question: What about the CC50 at 5 days [19] of the same compound?
Answer: The CC50 at 5 days was greater than 19 µM.

Question: With `CC(C)OC(=O)[C@H](C)N[P@](=O)(OC[C@H]1O[C@@H](n2ccc(=O)[nH]c2=O)[C@](C)(F)[C@@H]1O)Oc1ccccc1` [Sofosbuvir] as the compound, how does the EC50 [20] read?
Answer: Its EC50 is greater than 100 µM.

Question: What about the CC50 at 3 days [21] of the same compound?
Answer: Its CC50 at 3 days is greater than 100 µM.
